According to patent publication US5593984A, “Cephalosporin derivatives” (Yuhan Corporation, priority 1992, dated 1997):
Converted amounts (≈) assume the structure as drawn.

Key:
Format in all cases: cell-based
B. subtilis ATCC 6633 = test: MIC by agar dilution, B. subtilis ATCC 6633; settings: Bacillus subtilis, ATCC6633, 17 h; B. subtilis ATCC 6633; agar dilution, Mueller-Hinton agar; read-out: Minimal Inhibitory Concentration (MIC)
Procedure, shortened: (§1)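 Growth inhibition was scored after 17±1 hours at 35°-37° C. on Mueller-Hinton agar bearing twofold compound dilutions, with strains seeded at 10^6 CFU per ml; lowest inhibiting level taken as MIC.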

[1] = tested on: Ps. aeruginosa ATCC 10145; test: MIC by agar dilution, Ps. aeruginosa ATCC 10145; settings: Pseudomonas aeruginosa, ATCC10145, 17 h, Mueller-Hinton agar, read-out: Minimal Inhibitory Concentration (MIC)
Procedure, shortened: as §1

[2] = tested on: S. epidermidis ATCC 12228; test: MIC by agar dilution, S. epidermidis ATCC 12228; settings: Staphylococcus epidermidis, ATCC12228, 17 h; S. epidermidis ATCC 12228; agar dilution, Mueller-Hinton agar; read-out: Minimal Inhibitory Concentration (MIC)
Procedure, shortened: as §1

M. morganii DY-1 = test: MIC by agar dilution, M. morganii DY-1; settings: Morganella morganii, DY1, 17 h; M. morganii DY-1; agar dilution, Mueller-Hinton agar; read-out: Minimal Inhibitory Concentration (MIC)
Procedure, shortened: as §1

Staph. aureus ATCC 6538P = test: MIC by agar dilution, Staph. aureus ATCC 6538P; settings: Staphylococcus aureus, ATCC6538P, 17 h; Staph. aureus ATCC 6538P; agar dilution, Mueller-Hinton agar; read-out: Minimal Inhibitory Concentration (MIC)
Procedure, shortened: as §1

P. vulgaris NCTC 8313 = test: MIC by agar dilution, P. vulgaris NCTC 8313; settings: Proteus vulgaris, NCTC8313, 17 h; P. vulgaris NCTC 8313; agar dilution, Mueller-Hinton agar; read-out: Minimal Inhibitory Concentration (MIC)
Procedure, shortened: as §1

Ent. cloacae IFO 13535 = test: MIC by agar dilution, Ent. cloacae IFO 13535; settings: Enterobacter cloacae, IFO13535, 17 h; Ent. cloacae IFO 13535; agar dilution, Mueller-Hinton agar; read-out: Minimal Inhibitory Concentration (MIC)
Procedure, shortened: as §1

Ent. aerogenes IFO 12979 = test: MIC by agar dilution, Ent. aerogenes IFO 12979; settings: Klebsiella aerogenes, IFO12979, 17 h, Mueller-Hinton agar, read-out: Minimal Inhibitory Concentration (MIC)
Procedure, shortened: as §1

Staph. aureus C-57 = test: MIC by agar dilution, Staph. aureus C-57; settings: Staphylococcus aureus, C57, 17 h, Mueller-Hinton agar, read-out: Minimal Inhibitory Concentration (MIC)
Procedure, shortened: as §1

E. coli No. 29 = test: MIC by agar dilution, E. coli No. 29; settings: Escherichia coli, 17 h; E. coli No. 29; agar dilution, Mueller-Hinton agar; read-out: Minimal Inhibitory Concentration (MIC)
Procedure, shortened: as §1

E. coli NIHJ JC-2 = test: MIC by agar dilution, E. coli NIHJ JC-2; settings: Escherichia coli, NIHJJC2, 17 h; E. coli NIHJ JC-2; agar dilution, Mueller-Hinton agar; read-out: Minimal Inhibitory Concentration (MIC)
Procedure, shortened: as §1

[3] = tested on: Ps. aeruginosa NCTC 10490; test: MIC by agar dilution, Ps. aeruginosa NCTC 10490; settings: Pseudomonas aeruginosa, NCTC10490, 17 h, Mueller-Hinton agar, read-out: Minimal Inhibitory Concentration (MIC)
Procedure, shortened: as §1

K. pneumoniae NCTC 9632 = test: MIC by agar dilution, K. pneumoniae NCTC 9632; settings: Klebsiella pneumoniae, NCTC9632, 17 h; K. pneumoniae NCTC 9632; agar dilution, Mueller-Hinton agar; read-out: Minimal Inhibitory Concentration (MIC)
Procedure, shortened: as §1

Staph. aureus C-5113 = test: MIC by agar dilution, Staph. aureus C-5113; settings: Staphylococcus aureus, C5113, 17 h, Mueller-Hinton agar, read-out: Minimal Inhibitory Concentration (MIC)
Procedure, shortened: as §1

Staph. aureus C-5216 = test: MIC by agar dilution, Staph. aureus C-5216; settings: Staphylococcus aureus, C5216, 17 h, Mueller-Hinton agar, read-out: Minimal Inhibitory Concentration (MIC)
Procedure, shortened: as §1

[4] = tested on: Ser. marcescens IFO 12648; test: MIC by agar dilution, Ser. marcescens IFO 12648; settings: Serratia marcescens, IFO12648, 17 h; Ser. marcescens IFO 12648; agar dilution, Mueller-Hinton agar; read-out: Minimal Inhibitory Concentration (MIC)
Procedure, shortened: as §1

Ps. aeruginosa DY-2 = test: MIC by agar dilution, Ps. aeruginosa DY-2; settings: Pseudomonas aeruginosa, DY2, 17 h; Ps. aeruginosa DY-2; agar dilution, Mueller-Hinton agar; read-out: Minimal Inhibitory Concentration (MIC)
Procedure, shortened: as §1

Prov. stuartii IFO 12930 = test: MIC by agar dilution, Prov. stuartii IFO 12930; settings: Providencia stuartii, IFO12930, 17 h, Mueller-Hinton agar, read-out: Minimal Inhibitory Concentration (MIC)
Procedure, shortened: as §1

Staph. aureus Smith = test: MIC by agar dilution, Staph. aureus Smith; settings: Staphylococcus aureus, 17 h, Mueller-Hinton agar, read-out: Minimal Inhibitory Concentration (MIC)
Procedure, shortened: as §1

E. coli DY-1 = test: MIC by agar dilution, E. coli DY-1; settings: Escherichia coli, DY1, 17 h; E. coli DY-1; agar dilution, Mueller-Hinton agar; read-out: Minimal Inhibitory Concentration (MIC)
Procedure, shortened: as §1

Structure (SMILES) | MIC (B. subtilis ATCC 6633) | MIC [1] | MIC [2] | MIC (M. morganii DY-1) | MIC (Staph. aureus ATCC 6538P) | MIC (P. vulgaris NCTC 8313) | MIC (Ent. cloacae IFO 13535) | MIC (Ent. aerogenes IFO 12979) | MIC (Staph. aureus C-57) | MIC (E. coli No. 29) | MIC (E. coli NIHJ JC-2) | MIC [3] | MIC (K. pneumoniae NCTC 9632) | MIC (Staph. aureus C-5113) | MIC (Staph. aureus C-5216) | MIC [4] | MIC (Ps. aeruginosa DY-2) | MIC (Prov. stuartii IFO 12930) | MIC (Staph. aureus Smith) | MIC (E. coli DY-1)
CCc1c[n+](CC2=C(C(=O)[O-])N3C(=O)[C@@H](NC(=O)/C(=N\OC)c4csc(N)n4)[C@H]3SC2)cc2cccn12 [Ex. 37, 7-β-[(Z)-2-(2-aminothiazol-4-yl)-2-methoxyiminoacetamido]-3-(4-ethylpyrrolo[1,2-a]pyrazinium-2-yl)methyl-3-cephem-4-carboxylate] | 0.2 µg/mL (≈ 0.369 µM) | 3.13 µg/mL (≈ 5.78 µM) | 0.2 µg/mL (≈ 0.369 µM) | 0.025 µg/mL (≈ 0.0462 µM) | 0.1 µg/mL (≈ 0.185 µM) | 0.012 µg/mL (≈ 0.0222 µM) | 0.2 µg/mL (≈ 0.369 µM) | 0.012 µg/mL (≈ 0.0222 µM) | 25 µg/mL (≈ 46.2 µM) | ≤ 0.006 µg/mL | 0.012 µg/mL (≈ 0.0222 µM) | 0.78 µg/mL (≈ 1.44 µM) | 0.012 µg/mL (≈ 0.0222 µM) | 1.56 µg/mL (≈ 2.88 µM) | 0.78 µg/mL (≈ 1.44 µM) | 0.012 µg/mL (≈ 0.0222 µM) | 6.25 µg/mL (≈ 11.5 µM) | 0.012 µg/mL (≈ 0.0222 µM) | 0.2 µg/mL (≈ 0.369 µM) | ≤ 0.006 µg/mL
CCO/N=C(\C(=O)N[C@@H]1C(=O)N2C(C(=O)[O-])=C(C[n+]3cc(CC)n4cccc4c3)CS[C@H]12)c1csc(N)n1 [Ex. 38, 7-β-[(Z)-2-(2-aminothiazol-4-yl)-2-ethoxyiminoacetamido]-3-(4-ethylpyrrolo[1,2-a]pyrazinium-2-yl)methyl-3-cephem-4-carboxylate] | 0.2 µg/mL (≈ 0.36 µM) | 3.13 µg/mL (≈ 5.63 µM) | 0.1 µg/mL (≈ 0.18 µM) | 0.05 µg/mL (≈ 0.09 µM) | 0.2 µg/mL (≈ 0.36 µM) | 0.012 µg/mL (≈ 0.0216 µM) | 0.2 µg/mL (≈ 0.36 µM) | 0.025 µg/mL (≈ 0.045 µM) | 12.5 µg/mL (≈ 22.5 µM) | ≤ 0.006 µg/mL | 0.05 µg/mL (≈ 0.09 µM) | 0.78 µg/mL (≈ 1.4 µM) | 0.05 µg/mL (≈ 0.09 µM) | 1.56 µg/mL (≈ 2.81 µM) | 1.56 µg/mL (≈ 2.81 µM) | 0.05 µg/mL (≈ 0.09 µM) | 3.13 µg/mL (≈ 5.63 µM) | 0.05 µg/mL (≈ 0.09 µM) | 0.39 µg/mL (≈ 0.702 µM) | ≤ 0.006 µg/mL
CO/N=C(\C(=O)N[C@@H]1C(=O)N2C(C(=O)[O-])=C(C[n+]3cc(C(=O)O)n4cccc4c3)CS[C@H]12)c1csc(N)n1 [Ex. 39, 7-β-[(Z)-2-(2-aminothiazol-4-yl)-2-methoxyiminoacetamido]-3-(4-carboxypyrrolo[1,2-a]pyrazinium-2-yl)methyl-3-cephem-4-carboxylate] | 0.2 µg/mL (≈ 0.359 µM) | 0.78 µg/mL (≈ 1.4 µM) | 0.05 µg/mL (≈ 0.0897 µM) | ≤ 0.006 µg/mL | 0.39 µg/mL (≈ 0.699 µM) | ≤ 0.006 µg/mL | 0.012 µg/mL (≈ 0.0215 µM) | ≤ 0.006 µg/mL | 50 µg/mL (≈ 89.7 µM) | ≤ 0.006 µg/mL | ≤ 0.006 µg/mL | 0.2 µg/mL (≈ 0.359 µM) | ≤ 0.006 µg/mL | 1.56 µg/mL (≈ 2.8 µM) | 1.56 µg/mL (≈ 2.8 µM) | ≤ 0.006 µg/mL | 6.25 µg/mL (≈ 11.2 µM) | ≤ 0.006 µg/mL | 1.56 µg/mL (≈ 2.8 µM) | ≤ 0.006 µg/mL
CO/N=C(\C(=O)N[C@@H]1C(=O)N2C(C(=O)[O-])=C(C[n+]3ccn4cccc4c3C)CS[C@H]12)c1csc(N)n1 [Ex. 40, 7-β-[(Z)-2-(2-aminothiazol-4-yl)-2-methoxylminoacetamido]-3-(1-methylpyrrolo[1,2-a]pyrazinium-2-yl)methyl-3-cephem-4-carboxylate] | 0.1 µg/mL (≈ 0.19 µM) | 0.78 µg/mL (≈ 1.48 µM) | 0.05 µg/mL (≈ 0.0948 µM) | 0.012 µg/mL (≈ 0.0227 µM) | 0.05 µg/mL (≈ 0.0948 µM) | 0.012 µg/mL (≈ 0.0227 µM) | 0.025 µg/mL (≈ 0.0474 µM) | 0.012 µg/mL (≈ 0.0227 µM) | 12.5 µg/mL (≈ 23.7 µM) | ≤ 0.006 µg/mL | 0.012 µg/mL (≈ 0.0227 µM) | 0.39 µg/mL (≈ 0.739 µM) | ≤ 0.006 µg/mL | 0.78 µg/mL (≈ 1.48 µM) | 0.78 µg/mL (≈ 1.48 µM) | 0.012 µg/mL (≈ 0.0227 µM) | 3.13 µg/mL (≈ 5.93 µM) | ≤ 0.006 µg/mL | 0.2 µg/mL (≈ 0.379 µM) | ≤ 0.006 µg/mL
CCO/N=C(\C(=O)N[C@@H]1C(=O)N2C(C(=O)[O-])=C(C[n+]3ccn4cccc4c3C)CS[C@H]12)c1csc(N)n1 [Ex. 41, 7-β-[(Z)-2-(2-aminothiazol-4-yl)-2-ethoxyiminoacetamido]-3-(1-methylpyrrolo[1,2-a]pyrazinium-2-yl)methyl-3-cephem-4-carboxylate] | 0.2 µg/mL (≈ 0.369 µM) | 1.56 µg/mL (≈ 2.88 µM) | 0.1 µg/mL (≈ 0.185 µM) | 0.025 µg/mL (≈ 0.0462 µM) | 0.2 µg/mL (≈ 0.369 µM) | ≤ 0.006 µg/mL | 0.2 µg/mL (≈ 0.369 µM) | 0.025 µg/mL (≈ 0.0462 µM) | 12.5 µg/mL (≈ 23.1 µM) | 0.012 µg/mL (≈ 0.0222 µM) | 0.025 µg/mL (≈ 0.0462 µM) | 0.39 µg/mL (≈ 0.72 µM) | 0.025 µg/mL (≈ 0.0462 µM) | 0.78 µg/mL (≈ 1.44 µM) | 1.56 µg/mL (≈ 2.88 µM) | 0.05 µg/mL (≈ 0.0923 µM) | 3.13 µg/mL (≈ 5.78 µM) | 0.012 µg/mL (≈ 0.0222 µM) | 0.39 µg/mL (≈ 0.72 µM) | 0.012 µg/mL (≈ 0.0222 µM)
CCO/N=C(\C(=O)N[C@@H]1C(=O)N2C(C(=O)[O-])=C(C[n+]3ccn4c(Br)ccc4c3C)CS[C@H]12)c1csc(N)n1 [Ex. 42, 7-β-[(Z)-2-(2-aminothiazol-4-yl)-2-ethoxyiminoacetamido]-3-(6-bromo-1-methylpyrrolo[1,2-a]pyrazinium-2-yl)methyl-3-cephem-4-carboxylate] | 0.39 µg/mL (≈ 0.629 µM) | 6.25 µg/mL (≈ 10.1 µM) | 0.1 µg/mL (≈ 0.161 µM) | 0.2 µg/mL (≈ 0.322 µM) | 0.39 µg/mL (≈ 0.629 µM) | 0.025 µg/mL (≈ 0.0403 µM) | 0.78 µg/mL (≈ 1.26 µM) | 0.05 µg/mL (≈ 0.0806 µM) | 25 µg/mL (≈ 40.3 µM) | 0.05 µg/mL (≈ 0.0806 µM) | 0.2 µg/mL (≈ 0.322 µM) | 3.13 µg/mL (≈ 5.04 µM) | 0.2 µg/mL (≈ 0.322 µM) | 1.56 µg/mL (≈ 2.51 µM) | 3.13 µg/mL (≈ 5.04 µM) | 0.2 µg/mL (≈ 0.322 µM) | 25 µg/mL (≈ 40.3 µM) | 0.05 µg/mL (≈ 0.0806 µM) | 1.56 µg/mL (≈ 2.51 µM) | 0.025 µg/mL (≈ 0.0403 µM)
